Assays:
[1] = target: T1, Serine/threonine-protein kinase TAO2 (Homo sapiens) (UniProt Q9UL54); experiment: Inhibition of TAO2 assessed as residual activity of enzyme at 10 uM
T1 sequence (whole entry): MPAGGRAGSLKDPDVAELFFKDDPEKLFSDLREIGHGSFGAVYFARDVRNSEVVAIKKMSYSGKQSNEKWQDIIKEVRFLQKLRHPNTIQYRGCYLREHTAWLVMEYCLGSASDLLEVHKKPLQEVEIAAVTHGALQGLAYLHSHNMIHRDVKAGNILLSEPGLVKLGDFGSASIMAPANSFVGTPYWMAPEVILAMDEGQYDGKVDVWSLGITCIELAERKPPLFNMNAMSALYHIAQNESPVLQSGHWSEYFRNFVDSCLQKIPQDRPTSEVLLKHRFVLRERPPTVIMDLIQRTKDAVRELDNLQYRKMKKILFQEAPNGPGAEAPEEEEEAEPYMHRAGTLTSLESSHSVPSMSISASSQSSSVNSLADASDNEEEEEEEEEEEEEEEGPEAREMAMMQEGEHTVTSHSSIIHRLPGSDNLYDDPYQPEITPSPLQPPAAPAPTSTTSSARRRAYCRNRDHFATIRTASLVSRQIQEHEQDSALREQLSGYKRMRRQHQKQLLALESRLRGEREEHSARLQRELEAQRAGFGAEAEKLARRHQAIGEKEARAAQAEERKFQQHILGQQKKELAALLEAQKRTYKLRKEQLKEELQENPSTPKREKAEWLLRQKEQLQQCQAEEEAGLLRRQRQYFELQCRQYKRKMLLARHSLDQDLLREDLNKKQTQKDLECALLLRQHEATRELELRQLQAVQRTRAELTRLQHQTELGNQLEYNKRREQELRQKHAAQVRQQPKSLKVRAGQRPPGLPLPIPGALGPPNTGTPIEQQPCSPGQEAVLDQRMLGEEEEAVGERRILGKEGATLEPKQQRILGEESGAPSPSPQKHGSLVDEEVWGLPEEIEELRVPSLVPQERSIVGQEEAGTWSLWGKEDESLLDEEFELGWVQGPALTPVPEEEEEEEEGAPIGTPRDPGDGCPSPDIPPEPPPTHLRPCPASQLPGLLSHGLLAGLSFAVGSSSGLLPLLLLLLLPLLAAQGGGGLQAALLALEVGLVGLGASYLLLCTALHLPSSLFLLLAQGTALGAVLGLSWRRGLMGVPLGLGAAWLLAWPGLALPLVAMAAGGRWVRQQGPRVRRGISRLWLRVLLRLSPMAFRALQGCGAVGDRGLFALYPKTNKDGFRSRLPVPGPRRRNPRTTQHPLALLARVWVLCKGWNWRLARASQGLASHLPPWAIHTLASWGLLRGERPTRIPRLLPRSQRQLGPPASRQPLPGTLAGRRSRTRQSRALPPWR

[2] = target: T2, Serine/threonine-protein kinase TAO1 (Homo sapiens) (UniProt Q7L7X3); experiment: Inhibition of TAO1 assessed as residual activity of enzyme at 10 uM
T2 sequence (whole entry): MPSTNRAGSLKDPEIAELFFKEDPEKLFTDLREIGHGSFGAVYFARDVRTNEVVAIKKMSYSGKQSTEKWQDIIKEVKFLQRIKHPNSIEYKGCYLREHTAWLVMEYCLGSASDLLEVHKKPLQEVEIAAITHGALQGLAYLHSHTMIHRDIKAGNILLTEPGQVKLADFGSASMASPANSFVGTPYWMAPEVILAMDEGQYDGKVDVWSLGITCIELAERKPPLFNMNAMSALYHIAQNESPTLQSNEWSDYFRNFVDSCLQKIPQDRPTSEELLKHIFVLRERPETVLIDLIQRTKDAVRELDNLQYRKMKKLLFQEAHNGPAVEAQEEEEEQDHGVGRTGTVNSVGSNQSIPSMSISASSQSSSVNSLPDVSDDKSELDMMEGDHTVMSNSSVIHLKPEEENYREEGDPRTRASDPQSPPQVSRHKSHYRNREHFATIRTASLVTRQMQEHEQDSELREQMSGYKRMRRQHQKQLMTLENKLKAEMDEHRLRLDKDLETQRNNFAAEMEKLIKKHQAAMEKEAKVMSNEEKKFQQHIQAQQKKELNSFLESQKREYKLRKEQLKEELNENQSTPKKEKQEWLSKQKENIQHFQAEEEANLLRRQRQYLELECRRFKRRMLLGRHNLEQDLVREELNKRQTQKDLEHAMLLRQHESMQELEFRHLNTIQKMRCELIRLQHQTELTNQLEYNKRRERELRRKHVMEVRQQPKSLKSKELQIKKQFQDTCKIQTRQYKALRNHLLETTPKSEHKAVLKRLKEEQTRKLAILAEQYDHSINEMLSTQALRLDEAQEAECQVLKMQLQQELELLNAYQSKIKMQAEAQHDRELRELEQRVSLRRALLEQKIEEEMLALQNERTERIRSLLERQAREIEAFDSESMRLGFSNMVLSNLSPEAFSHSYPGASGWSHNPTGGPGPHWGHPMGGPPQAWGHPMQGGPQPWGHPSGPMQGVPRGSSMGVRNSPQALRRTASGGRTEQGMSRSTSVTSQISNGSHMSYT

[3] = target: RAF proto-oncogene serine/threonine-protein kinase (Homo sapiens) (UniProt P04049); experiment: Inhibition of c-Raf assessed as residual activity of enzyme at 10 uM
[4] = target: T3, Mitogen-activated protein kinase kinase kinase 7 (Homo sapiens) (UniProt O43318); experiment: Inhibition of TAK1 assessed as residual activity of enzyme at 10 uM
T3 sequence (whole entry): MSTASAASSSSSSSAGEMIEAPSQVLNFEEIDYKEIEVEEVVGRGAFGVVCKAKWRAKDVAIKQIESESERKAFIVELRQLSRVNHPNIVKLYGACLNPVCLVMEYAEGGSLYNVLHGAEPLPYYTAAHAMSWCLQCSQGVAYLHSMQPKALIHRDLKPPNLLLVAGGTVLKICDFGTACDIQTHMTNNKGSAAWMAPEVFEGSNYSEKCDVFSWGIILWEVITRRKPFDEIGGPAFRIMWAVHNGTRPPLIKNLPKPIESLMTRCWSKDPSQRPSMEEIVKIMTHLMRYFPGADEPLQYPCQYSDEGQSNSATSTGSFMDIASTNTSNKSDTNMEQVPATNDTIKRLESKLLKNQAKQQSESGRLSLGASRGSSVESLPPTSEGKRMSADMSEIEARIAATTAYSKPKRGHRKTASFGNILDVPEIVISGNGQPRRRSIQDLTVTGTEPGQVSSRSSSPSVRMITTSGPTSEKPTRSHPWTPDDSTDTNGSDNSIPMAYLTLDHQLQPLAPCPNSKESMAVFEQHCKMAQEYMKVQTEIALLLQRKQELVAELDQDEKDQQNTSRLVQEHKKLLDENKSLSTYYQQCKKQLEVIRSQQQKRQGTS

[5] = target: Cyclin-dependent kinase 5/CDK5 activator 1 (Homo sapiens) (UniProt Q00535+Q15078); experiment: Inhibition of CDK5/p25 assessed as residual activity of enzyme at 25 uM; assay type: protein-complex assay
Cyclin-dependent kinase 5/CDK5 activator 1 (Homo sapiens), sequence (Q00535 whole entry): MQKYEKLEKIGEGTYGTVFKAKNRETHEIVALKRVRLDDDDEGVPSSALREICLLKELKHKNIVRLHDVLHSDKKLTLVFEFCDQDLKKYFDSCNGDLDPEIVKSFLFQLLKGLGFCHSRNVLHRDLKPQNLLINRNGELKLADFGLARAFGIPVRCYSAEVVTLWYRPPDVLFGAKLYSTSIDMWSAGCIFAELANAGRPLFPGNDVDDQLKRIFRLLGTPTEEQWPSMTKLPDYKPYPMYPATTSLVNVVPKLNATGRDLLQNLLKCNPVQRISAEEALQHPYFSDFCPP
Cyclin-dependent kinase 5/CDK5 activator 1 (Homo sapiens), sequence (Q15078 99-307 partner limits assumed): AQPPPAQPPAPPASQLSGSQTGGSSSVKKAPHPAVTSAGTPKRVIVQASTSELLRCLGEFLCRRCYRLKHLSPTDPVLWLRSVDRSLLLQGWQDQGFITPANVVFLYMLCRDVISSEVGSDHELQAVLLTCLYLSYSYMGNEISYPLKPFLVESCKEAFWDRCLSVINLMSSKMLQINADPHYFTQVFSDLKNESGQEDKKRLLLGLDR

RAF proto-oncogene serine/threonine-protein kinase (Homo sapiens), sequence (P04049 whole entry): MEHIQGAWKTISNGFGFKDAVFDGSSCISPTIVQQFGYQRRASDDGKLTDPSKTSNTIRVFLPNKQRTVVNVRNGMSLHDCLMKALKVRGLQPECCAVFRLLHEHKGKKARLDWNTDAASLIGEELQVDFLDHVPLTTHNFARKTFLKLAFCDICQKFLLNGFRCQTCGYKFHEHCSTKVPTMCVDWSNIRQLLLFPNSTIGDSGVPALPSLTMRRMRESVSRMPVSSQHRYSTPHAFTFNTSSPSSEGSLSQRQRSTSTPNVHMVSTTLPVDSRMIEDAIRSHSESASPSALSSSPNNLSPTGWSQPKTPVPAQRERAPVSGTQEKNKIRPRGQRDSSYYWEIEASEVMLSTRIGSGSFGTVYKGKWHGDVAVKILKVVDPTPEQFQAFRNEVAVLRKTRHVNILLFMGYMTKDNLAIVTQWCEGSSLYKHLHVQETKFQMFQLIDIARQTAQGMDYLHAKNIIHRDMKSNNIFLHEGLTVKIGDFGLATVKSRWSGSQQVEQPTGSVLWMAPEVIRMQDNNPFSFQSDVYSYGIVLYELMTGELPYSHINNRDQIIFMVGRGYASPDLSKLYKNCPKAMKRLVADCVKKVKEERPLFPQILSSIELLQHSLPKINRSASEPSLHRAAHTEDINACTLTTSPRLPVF

Structure (SMILES): Cc1cc(N/N=C/c2ccncc2)nc2ccccc12
- Activity [1]: 89%
- Activity [2]: 88%
- Activity [3]: 92%
- Activity [4]: 68%
- Activity [5]: 81%
